The source made the active and inactive calls. The calls are words filed in the database; no cut-off is given here. Bounds are passed on as bounds.

Data set [1] concerns the target Glycogen synthase kinase-3 beta (Homo sapiens, UniProt P49841). As to the kind of experiment: Inhibition of GSK3beta (unknown origin) activity by competitive binding assay.
The next data set is filed under the species Homo sapiens. In words: Selectivity ratio for GSK3beta (unknown origin) to CK2A2 (unknown origin).
The test system of another data set is Mus musculus. In words: Reduction in pTau396 level in LaFerla 3xTg-C57BL6 mouse at 30 mg/kg, po by ELISA. The format is functional, organism-based. The arrangement: dose 30 mg/kg.
A short description of data set [2]: Ratio of brain to plasma in LaFerla 3xTg-C57BL6 mouse at 30 mg/kg, po. Type of data set: ADME, organism-based. More on the design: dose 30 mg/kg, route oral. The settings on record: brain and plasma, read-out: BPR.

Sequence of Glycogen synthase kinase-3 beta (P49841 whole entry): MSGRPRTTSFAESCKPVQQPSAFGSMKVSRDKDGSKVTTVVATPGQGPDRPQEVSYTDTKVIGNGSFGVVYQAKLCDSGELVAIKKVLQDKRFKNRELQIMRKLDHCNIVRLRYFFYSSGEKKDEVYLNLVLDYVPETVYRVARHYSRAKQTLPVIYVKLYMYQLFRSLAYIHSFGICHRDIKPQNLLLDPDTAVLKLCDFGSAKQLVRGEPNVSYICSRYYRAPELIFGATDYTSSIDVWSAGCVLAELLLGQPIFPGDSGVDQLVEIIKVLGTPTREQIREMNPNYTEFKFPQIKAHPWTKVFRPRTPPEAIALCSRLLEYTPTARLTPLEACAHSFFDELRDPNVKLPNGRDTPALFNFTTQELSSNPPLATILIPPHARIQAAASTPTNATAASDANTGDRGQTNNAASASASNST

For `O=C(Nc1cc(-c2ccc3ncccc3c2)ccn1)C1CC1`, in data set [1], the IC50 stood at 7.5 nM.

For the compound `COc1sc(-c2ccnc(NC(=O)C3CC3)c2)nc1C(N)=O`, in data set [1], the IC50 was 30 nM. Further, in the data set listed under Homo sapiens, the Ratio was more than 67.

`Cc1nc(-c2ccnc(NC(=O)C3CC3)c2)sc1C(N)=O`: in data set [1], the IC50 worked out at 37 nM. Take `O=C(Nc1cc(-c2ccc3cccnc3c2)ccn1)C1CC1`: the IC50 in data set [1] was found to be 240 nM.

On to `CC(C)Oc1nc(-c2ccnc(NC(=O)C3CC3)c2)sc1C(N)=O`, for which the IC50 in data set [1] came out at 0.45 nM. In data set [1], `NC(=O)c1cnc(-c2ccnc(NC(=O)C3CC3)c2)s1` yielded an IC50 of 13 nM. This IC50 lies about 29-fold higher than the previous one.

Compound `O=C1NCCCc2cc(-c3ccnc(NC(=O)C4CC4)c3)ccc21` yielded an IC50 in data set [1] of 2.4 nM. The same measure, in the same setting: in the case of `NC(=O)c1ccc(-c2ccnc(NC(=O)C3CC3)c2)nn1` it was 140 nM; in that of `NC(=O)c1sc(-c2ccnc(NC(=O)C3CC3)c2)nc1OCC1CC1`, 0.29 nM. `COc1cc(-c2ccnc(NC(=O)C3CC3)c2)ncc1C(N)=O` gave an IC50 in data set [1] of 22 nM. Take `O=C1NCCOc2cc(-c3ccnc(NC(=O)C4CC4)c3)ccc21`: the IC50 in data set [1] came out at 4.7 nM. Still for that read-out and setting: in the case of `O=C(Nc1cc(-c2ccc3ccncc3c2)ccn1)C1CC1` it was 74 nM. `O=C1CCCc2cc(-c3ccnc(NC(=O)C4CC4)c3)ccc2N1` returned an IC50 in data set [1] of 730 nM.

In data set [1], `NC(=O)c1sc(-c2ccnc(NC(=O)C3CC3)c2)nc1OC1CCC1` had an IC50 of 0.37 nM.

`NC(=O)c1cnc(-c2ccnc(NC(=O)C3CC3)c2)cc1OCC(F)(F)F` yielded an IC50 in data set [1] of 6.8 nM. Regarding `COc1nc(-c2ccnc(NC(=O)C3CC3)c2)sc1C(N)=O`, in data set [1], the IC50 was 1.1 nM. The inhibition result in the data set on Mus musculus is “Active”. Besides, in data set [2], the Kp came to 0.26. The Ratio in the data set filed under Homo sapiens was found to be 10.

In turn, `NC(=O)c1cnc(-c2ccnc(NC(=O)C3CC3)c2)cn1` registered an IC50 in data set [1] of 30 nM. That is a double-digit nanomolar value. Take `O=C1NCc2cc(-c3ccnc(NC(=O)C4CC4)c3)ccc21`: the IC50 in data set [1] was found to be 11 nM.

Consider `COc1nc(-c2ccnc(NC(=O)C3CC3)c2)ncc1C(N)=O`, for which the IC50 in data set [1] was 5.9 nM. Still for that read-out and setting: in the case of `COc1cc(-c2ccnc(NC(=O)C3CC3)c2)cnc1C(N)=O` it was 7 nM. The same measure, in the same setting: with `O=C(Nc1cc(-c2ccc3ccccc3c2)ccn1)C1CC1` the figure was 610 nM. Same read-out and setting: in the case of `CC(C)Oc1cc(-c2ccnc(NC(=O)C3CC3)c2)ncc1C(N)=O` it was 4.4 nM; in that of `Cn1nc(C(N)=O)cc1-c1ccnc(NC(=O)C2CC2)c1`, 24 nM. As to `O=C1NCCc2cc(-c3ccnc(NC(=O)C4CC4)c3)ccc21`, the IC50 in data set [1] came to 2.4 nM. For the same compound, in the data set on Mus musculus, the inhibition result was “Active”. With `CC(C)Oc1nc(-c2ccnc(NC(=O)C3CC3)c2)ncc1C(N)=O`, in data set [1], the half-inhibitory concentration (IC50) came out at 0.83 nM.

With `NC(=O)c1ccc(-c2ccnc(NC(=O)C3CC3)c2)cn1`, the IC50 in data set [1] came to 90 nM.

(Values after ChEMBL document CHEMBL3407347, “Discovery of new acylaminopyridines as GSK-3 inhibitors by a structure guided in-depth exploration of chemical space around a pyrrolopyridinone core” (Bioorg Med Chem Lett, 2015).)
